Assays:
Wistar rat = experiment: Influence of t-PA on the bleeding time (tail transection, anesthetized rats); assay type: in vivo; conditions: for Bleeding time: urethane anesthesia, t-PA 1 mg/kg constant i.v. infusion, edaravone 3 mg/kg i.v. 5 min before tail transection, average ± S.E., measured up to 30 min
Description: Via a cannula inserted into the femoral vein of each Wistar rat anesthetized with urethane (1.2 g/kg, i.p.), 1 mg/kg (1 mg=580000 IU; 4 mL/kg, 1 mL/hr) of physiological saline or t-PA was constantly infused. Fifty five minutes after the constant fusion was started, 3 mg of edaravone (3-methyl-1-phenyl-2-pyrazolin-5-one) or physiological saline was administered intravenously. Five minutes after that, the tail was transected at 2 mm from its tip immediately by using a razor. Every 15 seconds, the blood from the tail was blotted with a filter paper and the time until bleeding ceased was measured for up to 30 minutes.

[1] = test system: patients diagnosed as cerebral infarction; experiment: Function prognosis by modified ranking scale in cerebral infarction patients (Example 2); assay type: in vivo, human; conditions: on leaving hospital within 1 month after start of administration
Description: Administration amount and method are shown below.
Sodium ozagrel: 80 mg of sodium ozagrel was dissolved in an adequate amount of an electrolyte solution or carbohydrate solution and the resulting solution was intravenously administered constantly for 2 weeks, twice daily, that is, in the morning and evening, each over 2 hours.
(§1) Argatroban: For the first two days, 60 mg/120 ml of argatroban was diluted with an adequate amount of a transfusion fluid and the resulting solution was intravenously infused constantly over 24 hours. For the following 5 days, 10 mg/20 ml of argatroban was diluted with an adequate amount of a transfusion fluid and the resulting solution was intravenously infused twice daily, that is, in the morning and evening, each over 3 hours.
Sodium ozagrel+edaravone: 80 mg of sodium ozagrel was dissolved in an adequate amount of an electrolyte solution or carbohydrate solution and the resulting solution was intravenously administered constantly for 2 weeks, twice daily, that is, in the morning and evening, each over 2 hours. At the same time, 30 mg/20 ml of edaravone was diluted with an adequate amount of physiological saline and the resulting solution was intravenously infused for 2 weeks, twice daily, that is, in the morning and evening, each over 20 minutes.
as §1, with “Argatroban+edaravone: For” for “Argatroban: For”, “3 hours; and at the same time, 30 mg/20 ml of edaravone was diluted with an adequate amount of physiological saline and the resulting solution was intravenously infused for 2 weeks twice daily, that is, in the morning and evening, each over 30 minutes.” for “3 hours.”
In the above-described table, what the meaning of grade will be explained briefly. Grade 0: no symptoms, Grade 1: some symptoms but non-significant disability (able to carry out all daily activities and affairs), Grade 2: slight disability (unable to carry out all previous activities but able to look after own affairs without assistance), Grade 3: moderate disability (requiring some help, but able to walk without assistance), Grade 4: relatively severe disability (requiring assistance for walk or daily activities), Grade 5: very severe disability (bedridden, incontinence and requiring constant nursing care and attention), Grade 6: death.

[2] = test system: patients in the acute stage of cerebral infarction; conditions: edaravone 30 mg i.v. twice daily for 14 days; evaluated three months after initiation or upon discharge within three months; cited from earlier work
[3] = test system: patients in the acute stage of cerebral infarction; experiment: Comparative Example: edaravone alone, modified ranking scale, patients in the acute stage of cerebral infarction; assay type: in vivo, human; conditions: edaravone used alone, within three months, from cited data
Description: Evaluation results of edaravone, when administered alone, in accordance with the modified ranking scale are included in Therapeutic Research, Vol. 19(4), 1333-1345, 1998.
Evaluation method and results: Edaravone (30 mg/20 ml) diluted with 100 ml of physiological saline was intravenously infused to 8 patients in the acute stage of cerebral infarction constantly for 14 days twice daily (morning and evening), each over 30 minutes. During the administration term of this medicament, administration of another medicament which might have an influence on the drug efficacy evaluation was avoided. Evaluation was made in accordance with the modified ranking scale three months after the initiation of the administration or upon discharge of the patient from the hospital within three months after the initiation of administration.

Compound | Influence on bleeding time compared with the control group (physiological saline) (Wistar rat; t-PA 1 mg/kg, result in words) | Bleeding time (Wistar rat) | Number of patients in Grade 0 (no symptoms), modified ranking scale [1] | Number of patients in Grade 1 (some symptoms but non-significant disability), modified ranking scale [1] | Number of patients in Grade 2 (slight disability), modified ranking scale [1] | Number of patients in Grade 3 (moderate disability), modified ranking scale [1] | Number of patients in Grade 4 (relatively severe disability), modified ranking scale [1] | Number of patients in Grade 5 (very severe disability), modified ranking scale [1] | Number of patients in Grade 6 (death), modified ranking scale [1] | Number of patients in Grade 0, modified ranking scale [2] | Number of patients in Grade 1 (some symptoms but non-significant disability), modified ranking scale [2] | Number of patients in Grade 2 (slight disability), modified ranking scale [2] | Number of patients in Grade 3, modified ranking scale [2] | Number of patients in Grade 4 (relatively severe disability), modified ranking scale [2] | Number of patients in Grade 5, modified ranking scale [2] | Number of patients in Grade 6, modified ranking scale [2] | Ratio of Grade 0 [3]
t-PA: tissue plasminogen activator, thrombolytic agent; GRTPA (Mitsubishi Pharma Corporation) can be used | prolonged the bleeding time significantly | 17.70 ± 2.85 min |  |  |  |  |  |  |  |  |  |  |  |  |  |  | 
O=C([O-])/C=C/c1ccc(Cn2ccnc2)cc1.[Na+] [OZA] |  |  | 5 | 2 | 1 | 1 | 0 | 0 | 0 |  |  |  |  |  |  |  | 
CC1=NN(c2ccccc2)C(=O)C1 [Edaravone, 3-methyl-1-phenyl-2-pyrazolin-5-one] |  | 11.55 ± 2.31 min |  |  |  |  |  |  |  | 0 | 2 | 3 | 0 | 3 | 0 | 0 | 0%
CC1CNc2c(cccc2S(=O)(=O)N[C@@H](CCCNC(=N)N)C(=O)N2CC[C@@H](C)C[C@@H]2C(=O)O)C1 (mixture of isomers) [NOV, (2R, 4R)4-methyl-1-[N^2-((RS)-3-methyl-1,2,3,4-tetrahydro-8-quinolinesulfonyl)-L-arginyl]-2-piperidinecarboxylic acid monohydrate] |  |  | 1 | 1 | 2 | 1 | 0 | 3 | 0 |  |  |  |  |  |  |  | 
